Results reported in ChEMBL document CHEMBL4699632, “Discovery of polypodiside as a Keap1-dependent Nrf2 activator attenuating oxidative stress and accumulation of extracellular matrix in glomerular mesangial cells under high glucose” (Bioorg Med Chem, 2020).
Activity calls are given as the source filed them. No cut-off for these calls is given here.

Columns and labels:
[1] = test system: Glomerular mesangial cell; experiment: Effect on high glucose-induced extracellular matrix accumulation in human glomerular mesangial cells transfected with Nrf2-siRNA assessed as decrease in collagen 4 level at 10 uM; type: functional, tissue-based
[2] = Suppression of high glucose-induced extracellular matrix accumulation in human glomerular mesangial cells assessed as effect on TGFbeta1 secretion at 10 uM by ELISA (reference value: 312.7 +/- 18.2 %); type: functional; details: Glomerular mesangial cell
[3] = Cytotoxicity against human glomerular mesangial cells assessed as effect on cell viability at 400 uM after 1 hr by CCK8 assay; type: cell-based
[4] = Suppression of high glucose-induced extracellular matrix accumulation in human glomerular mesangial cells assessed as laminin level at 10 uM by ELISA (reference value: 183.8 +/- 9.3 %); type: functional; details: Glomerular mesangial cell
[5] = test system: Glomerular mesangial cell; experiment: Effect on high glucose-induced extracellular matrix accumulation in human glomerular mesangial cells transfected with Nrf2-siRNA assessed as decrease in laminin level at 10 uM; type: functional, tissue-based
[6] = Suppression of high glucose-induced extracellular matrix accumulation in human glomerular mesangial cells assessed as collagen 4 level at 0.1 uM by ELISA (reference value: 221.7 +/- 14.1 %); type: functional; details: Glomerular mesangial cell
[7] = target: T1, Nuclear factor erythroid 2-related factor 2 (Homo sapiens) (UniProt Q16236); experiment: Activation of Nrf2 in human glomerular mesangial cells assessed as increase in Nrf2 level at 0.1 to 10 uM under high glucose condition; type: tissue-based; details: Glomerular mesangial cell, filed as activator, dose microM 0.1-10
T1 sequence (whole entry): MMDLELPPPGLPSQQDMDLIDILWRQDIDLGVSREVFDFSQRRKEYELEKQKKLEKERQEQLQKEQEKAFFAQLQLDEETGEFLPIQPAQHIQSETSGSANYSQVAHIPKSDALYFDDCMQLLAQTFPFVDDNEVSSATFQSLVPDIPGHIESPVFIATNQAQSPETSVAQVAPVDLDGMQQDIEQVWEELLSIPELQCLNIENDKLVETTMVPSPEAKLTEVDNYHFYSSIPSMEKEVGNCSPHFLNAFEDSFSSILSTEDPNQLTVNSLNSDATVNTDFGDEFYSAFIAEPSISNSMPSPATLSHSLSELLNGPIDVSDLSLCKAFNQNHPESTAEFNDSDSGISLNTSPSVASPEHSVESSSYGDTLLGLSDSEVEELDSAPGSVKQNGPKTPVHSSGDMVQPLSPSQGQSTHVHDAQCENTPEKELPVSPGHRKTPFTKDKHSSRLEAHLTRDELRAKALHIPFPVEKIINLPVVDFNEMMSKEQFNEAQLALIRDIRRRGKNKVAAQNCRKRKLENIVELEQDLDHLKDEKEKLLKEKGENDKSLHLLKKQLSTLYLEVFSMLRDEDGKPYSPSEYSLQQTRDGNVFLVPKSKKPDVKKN

[8] = test system: Glomerular mesangial cell; experiment: Cytoprotective activity against high glucose-induced self-limited proliferation in human glomerular mesangial cells at 0.1 to 10 uM measured after 3 hrs under high glucose condition by BrdU incorporation assay; type: functional, tissue-based; details: dose microM 0.1-10, time 3.0 hrs
[9] = test system: Glomerular mesangial cell; experiment: Suppression of high glucose-induced extracellular matrix accumulation in human glomerular mesangial cells assessed as decrease in CTGF secretion by ELISA; type: functional, tissue-based; details: dose microM 0.1-10
[10] = test system: Glomerular mesangial cell; experiment: Suppression of high glucose-induced extracellular matrix accumulation in human glomerular mesangial cells assessed as reduction in fibronectin level by ELISA; type: functional, tissue-based; details: dose microM 0.1-10
[11] = Suppression of high glucose-induced extracellular matrix accumulation in human glomerular mesangial cells assessed as collagen 4 level at 1 uM by ELISA (reference value: 221.7 +/- 14.1 %); type: functional; details: Glomerular mesangial cell
[12] = Antioxidant activity against high glucose-induced oxidative stress in human glomerular mesangial cells assessed as effect on SOD activity at 0.1 uM by colorimetric assay relative to control; type: functional, Glomerular mesangial cell
[13] = target: Kelch-like ECH-associated protein 1 (Homo sapiens) (UniProt Q14145); experiment: Binding affinity to Keap1 in human glomerular mesangial cells assessed as disruption of Keap1-Nrf2 complex formation causing decrease in Keap1 level at 10 uM measured after overnight by co-immunoprecipitation analysis; type: tissue-based; details: Glomerular mesangial cell, filed as activator, time 12.0 hrs
Sequence of Kelch-like ECH-associated protein 1 (Homo sapiens) (Q14145 whole entry): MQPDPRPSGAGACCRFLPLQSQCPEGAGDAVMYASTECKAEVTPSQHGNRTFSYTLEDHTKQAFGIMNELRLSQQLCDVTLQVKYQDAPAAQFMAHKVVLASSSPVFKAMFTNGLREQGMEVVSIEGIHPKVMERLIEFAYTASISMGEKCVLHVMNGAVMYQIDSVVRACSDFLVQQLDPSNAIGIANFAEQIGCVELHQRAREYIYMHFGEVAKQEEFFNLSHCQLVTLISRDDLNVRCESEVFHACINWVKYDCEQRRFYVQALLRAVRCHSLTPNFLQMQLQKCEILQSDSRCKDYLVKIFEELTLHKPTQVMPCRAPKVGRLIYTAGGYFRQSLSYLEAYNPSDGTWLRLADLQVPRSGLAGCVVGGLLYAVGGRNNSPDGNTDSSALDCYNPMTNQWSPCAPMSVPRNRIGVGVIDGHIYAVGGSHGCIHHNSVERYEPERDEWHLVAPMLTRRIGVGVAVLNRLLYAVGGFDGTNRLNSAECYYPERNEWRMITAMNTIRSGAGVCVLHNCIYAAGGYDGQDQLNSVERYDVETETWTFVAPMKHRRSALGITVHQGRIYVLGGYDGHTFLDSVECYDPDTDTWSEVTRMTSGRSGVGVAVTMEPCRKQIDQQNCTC

[14] = Antioxidant activity against high glucose-induced oxidative stress in human glomerular mesangial cells assessed as effect on intracellular MDA level at 1 uM after 10 mins by thiobarbituric acid based absorbance analysis (reference value: 216 +/- 17.3 %); type: functional, Glomerular mesangial cell
[15] = test system: Glomerular mesangial cell; experiment: Suppression of high glucose-induced extracellular matrix accumulation in human glomerular mesangial cells assessed as reduction in laminin level by ELISA; type: functional, tissue-based; details: dose microM 0.1-10
[16] = Suppression of high glucose-induced extracellular matrix accumulation in human glomerular mesangial cells assessed as collagen 4 level at 10 uM by ELISA (reference value: 221.7 +/- 14.1 %); type: functional; details: Glomerular mesangial cell
[17] = Suppression of high glucose-induced extracellular matrix accumulation in human glomerular mesangial cells assessed as fibronectin level at 10 uM by ELISA (reference value: 319.6 +/- 12.4 %); type: functional; details: Glomerular mesangial cell
[18] = Suppression of high glucose-induced extracellular matrix accumulation in human glomerular mesangial cells assessed as effect on CTGF secretion at 10 uM by ELISA (reference value: 267.7 +/- 21.3 %); type: functional; details: Glomerular mesangial cell
[19] = test system: Glomerular mesangial cell; experiment: Increase in total Nrf2 expression in human glomerular mesangial cells at 10 uM under high glucose condition by Western blot analysis; type: functional, tissue-based; details: dose microM 0.1-10
[20] = test system: Glomerular mesangial cell; experiment: Effect on high glucose-induced extracellular matrix accumulation in human glomerular mesangial cells transfected with Nrf2-siRNA assessed as decrease in fibronectin level at 10 uM; type: functional, tissue-based
[21] = Antioxidant activity against high glucose-induced oxidative stress in human glomerular mesangial cells assessed as effect on intracellular ROS level at 10 uM after 20 mins by DCFH-DA staining based fluorescence assay (reference value: 361 +/- 16.7 %); type: functional, Glomerular mesangial cell
[22] = test system: Glomerular mesangial cell; experiment: Suppression of high glucose-induced extracellular matrix accumulation in human glomerular mesangial cells assessed as reduction in collagen 4 level by ELISA; type: functional, tissue-based; details: dose microM 0.1-10
[23] = Suppression of high glucose-induced extracellular matrix accumulation in human glomerular mesangial cells assessed as effect on TGFbeta1 secretion at 1 uM by ELISA (reference value: 312.7 +/- 18.2 %); type: functional; details: Glomerular mesangial cell
[24] = test system: Glomerular mesangial cell; experiment: Cytoprotective activity against high glucose-induced decreased cell viability in human glomerular mesangial cells at 0.1 uM after 1 hr by CCK8 assay; type: functional, tissue-based
[25] = test system: Glomerular mesangial cell; experiment: Effect on high glucose-induced oxidative stress in human glomerular mesangial cells transfected with Nrf2-siRNA assessed as decrease in intracellular MDA level at 10 uM; type: functional
[26] = test system: Glomerular mesangial cell; experiment: Suppression of high glucose-induced extracellular matrix accumulation in human glomerular mesangial cells assessed as decrease in TGFbeta1 secretion by ELISA; type: functional, tissue-based; details: dose microM 0.1-10
[27] = Antioxidant activity against high glucose-induced oxidative stress in human glomerular mesangial cells assessed as effect on intracellular ROS level at 1 uM after 20 mins by DCFH-DA staining based fluorescence assay (reference value: 361 +/- 16.7 %); type: functional, Glomerular mesangial cell
[28] = test system: Glomerular mesangial cell; experiment: Effect on high glucose-induced oxidative stress in human glomerular mesangial cells transfected with Nrf2-siRNA assessed as decrease in intracellular ROS level at 10 uM; type: functional, tissue-based
[29] = Antioxidant activity against high glucose-induced oxidative stress in human glomerular mesangial cells assessed as effect on SOD activity at 10 uM by colorimetric assay relative to control; type: functional, Glomerular mesangial cell
[30] = Antioxidant activity against high glucose-induced oxidative stress in human glomerular mesangial cells assessed as effect on intracellular MDA level at 0.1 uM after 10 mins by thiobarbituric acid based absorbance analysis (reference value: 216 +/- 17.3 %); type: functional, Glomerular mesangial cell
[31] = Antioxidant activity against high glucose-induced oxidative stress in human glomerular mesangial cells assessed as effect on intracellular ROS level at 0.1 uM after 20 mins by DCFH-DA staining based fluorescence assay (reference value: 361 +/- 16.7 %); type: functional, Glomerular mesangial cell
[32] = Suppression of high glucose-induced extracellular matrix accumulation in human glomerular mesangial cells assessed as laminin level at 0.1 uM by ELISA (reference value: 183.8 +/- 9.3 %); type: functional; details: Glomerular mesangial cell
[33] = Suppression of high glucose-induced extracellular matrix accumulation in human glomerular mesangial cells assessed as fibronectin level at 1 uM by ELISA (reference value: 319.6 +/- 12.4 %); type: functional; details: Glomerular mesangial cell
[34] = Suppression of high glucose-induced extracellular matrix accumulation in human glomerular mesangial cells assessed as effect on TGFbeta1 secretion at 0.1 uM by ELISA (reference value: 312.7 +/- 18.2 %); type: functional; details: Glomerular mesangial cell
[35] = Antioxidant activity against high glucose-induced oxidative stress in human glomerular mesangial cells assessed as effect on CAT activity at 10 uM by colorimetric assay relative to control; type: functional, Glomerular mesangial cell
[36] = target: T1, Nuclear factor erythroid 2-related factor 2 (Homo sapiens); experiment: Activation of Nrf2 in human glomerular mesangial cells transfected with ARE luciferase reporter plasmid assessed as increase in ARE luciferase activity at 0.1 to 10 uM under high glucose condition by dual luciferase reporter gene assay; details: Glomerular mesangial cell, filed as activator, dose microM 0.1-10
[37] = Suppression of high glucose-induced extracellular matrix accumulation in human glomerular mesangial cells assessed as fibronectin level at 0.1 uM by ELISA (reference value: 319.6 +/- 12.4 %); type: functional; details: Glomerular mesangial cell
[38] = target: T1, Nuclear factor erythroid 2-related factor 2 (Homo sapiens); experiment: Activation of Nrf2 in human glomerular mesangial cells assessed as increase in nuclear Nrf2 expression at 0.1 to 10 uM under high glucose condition by Western blot analysis; details: Glomerular mesangial cell, filed as activator, dose microM 0.1-10
[39] = Suppression of high glucose-induced extracellular matrix accumulation in human glomerular mesangial cells assessed as laminin level at 1 uM by ELISA (reference value: 183.8 +/- 9.3 %); type: functional; details: Glomerular mesangial cell
[40] = Antioxidant activity against high glucose-induced oxidative stress in human glomerular mesangial cells assessed as effect on intracellular MDA level at 10 uM after 10 mins by thiobarbituric acid based absorbance analysis (reference value: 216 +/- 17.3 %); type: functional, Glomerular mesangial cell
[41] = Antioxidant activity against high glucose-induced oxidative stress in human glomerular mesangial cells assessed as effect on CAT activity at 1 uM by colorimetric assay relative to control; type: functional, Glomerular mesangial cell
[42] = Antioxidant activity against high glucose-induced oxidative stress in human glomerular mesangial cells assessed as effect on CAT activity at 0.1 uM by colorimetric assay relative to control; type: functional, Glomerular mesangial cell
[43] = target: T1, Nuclear factor erythroid 2-related factor 2 (Homo sapiens); experiment: Activation of Nrf2 in human glomerular mesangial cells assessed as translocation of Nrf2 from cytoplasm to nucleus at 0.1 to 10 uM under high glucose condition by DAPI staining based fluorescence microscopy analysis; type: tissue-based; details: Glomerular mesangial cell, filed as activator, dose microM 0.1-10
[44] = Antioxidant activity against high glucose-induced oxidative stress in human glomerular mesangial cells assessed as effect on SOD activity at 1 uM by colorimetric assay relative to control; type: functional, Glomerular mesangial cell

- Activity [7]: Active
- Activity [13]: Active
- Activity [36]: Active
- Activity [38]: Active
- Activity [43]: Active
SMILES: O=C(O)/C=C/c1cc(OC(=O)/C=C/c2ccc(O[C@@H]3O[C@H](CO)[C@@H](O)[C@H](O)[C@H]3O)cc2)cc(O[C@@H]2O[C@H](CO)[C@@H](O)[C@H](O)[C@H]2O)c1
- Activity [1]: inactive
- level, % of control at 10 µM [2]: 140%
- Activity [3]: Non-Toxic
- level, % of control at 10 µM [4]: 124%
- Activity [5]: inactive
- level, % of control at 0.1 µM [6]: 193%
- Activity [8]: Active
- inhibition [9]: Dose-dependent effect
- inhibition [10]: Dose-dependent effect
- level, % of control at 1 µM [11]: 163%
- Activity [12]: 155.7%
- Activity [14]: 163.7%
- inhibition [15]: Dose-dependent effect
- level, % of control at 10 µM [16]: 129%
- level, % of control at 10 µM [17]: 179%
- level, % of control at 10 µM [18]: 119%
- Activity [19]: Active
- Activity [20]: inactive
- Activity [21]: 190.8%
- inhibition [22]: Dose-dependent effect
- level, % of control at 1 µM [23]: 213%
- Activity [24]: Active
- Activity [25]: inactive
- inhibition [26]: Dose-dependent effect
- Activity [27]: 287.2%
- Activity [28]: inactive
- Activity [29]: 306.3%
- Activity [30]: 183.9%
- Activity [31]: 323%
- level, % of control at 0.1 µM [32]: 163%
- level, % of control at 1 µM [33]: 246%
- level, % of control at 0.1 µM [34]: 262%
- Activity [35]: 233.4%
- level, % of control at 0.1 µM [37]: 282%
- level, % of control at 1 µM [39]: 148%
- Activity [40]: 135.9%
- Activity [41]: 188.5%
- Activity [42]: 144.6%
- Activity [44]: 229.2%
